Reference: patent publication US11958869B2, “Ruthenium arene Schiff-base complexes and uses thereof” (CITY UNIVERSITY OF HONG KONG, priority 2021, dated 2024)
Where two headings read alike, the source gives them in different places.

Tests used:
[1] = test system: human MD-MBA-231 breast cancer xenografts; test: Breast cancer MDA-MB-231 xenograft model; type: in vivo, athymic NCr nude mice; details: doses tested, FIG. 11
Method: (§1) Hepatocellular carcinoma LM3 cells (5×10^4 cells/20 μL) or breast cancer MDM-BA-231 cells (5×10^4 cells/20 μL) were implanted subcutaneously in the flanks of athymic NCr nude mice. A total of 40 male NCr nude mice (8 weeks or older weighing 20-24 g or more) were used for the tumor xenografts. The tested compounds (e.g., Ru^TEN 1, Ru^TEN 3, or salinomycin) were intraperitoneally administered at the dose of […] twice per week. Tumor volume was determined by image analysis. The mice in the control group received corresponding injection of 0.1% DMSO. For tumor-bearing NCr nude mice during the 4-weeks (or 28 days) experiment, the % body weight changes refer to: (the total weight on reading day/the total weight on day treatment started)×100. All mice were sacrificed at the end of the experiment (i.e., by the end of 28 days), and tissues including lung, liver, tumor, heart, brain, kidneys, spleen and colon were harvested, and checked for any sign of cancer metastasis.
Results are depicted in FIGS. 9 to 11.

MCF-7 mammospheres = test: Mammosphere formation assay, MCF-7; type: cell-based; details: for Number of MCF-7 mammospheres / Size (μm) of MCF-7 mammospheres: primary mammospheres grown 96 hr, incubated with compound 72 hrs, >50 μm analyzed
Method: (§2) Since the breast cancer stem cells formed a mass of colonies in the form of floating spheres without attaching to a surface of a plate, the size and number of the masses were observed by a mammosphere formation assay to determine a cancer-stem-cell-specific effect.
(§3) Single-cell suspension was cultured at a density of 1,000 to 15,000 cells/well using a MammoCult™ Human Medium kit (Stemcell Technologies Inc Vancouver, CA), and the spherical cells were counted and observed under a microscope.
(§4) The mammosphere assay is based on the concept that when cells proliferate in three-dimensional spheroid structures, only cancer cells with stem-like characteristics are able to evade anoikis.

MDA-MB-231 mammospheres [2] = test: Invasion / dispersion of spheroids into 3D collagen; type: cell-based; details: cells incubated with compound 72 hr, FIG. 4
Description: CSCs are associated with highly invasive phenotype and it is believed that this subset of cancer cells gives rise to metastases. In order to monitor the dissemination of MCF-7 and MDA-MB-231 breast cancer spheroids, the spheroids were embedded into three-dimensional (3D) collagen scaffold using Aim Biotech 3D cell culture chips. Collagen with spheroids was introduced into the central region of the microfluidic system where it polymerized via thermal cross-linking. Cell culture media was introduced into media channels forcing spheroids to move through collagen towards the media.
Thus, whether Ru^TEN complexes and salinomycin affected the invasive properties of MDA-MB-231 spheroids was then investigated. To this purpose, MDA-MB-231 monolayer cells were incubated with compounds of interest (e.g., Ru^TEN complexes of Examplel or salinomycin) for 72 hr, then the delamination was allowed to proceed for over 28 hr. Results are depicted in FIG. 4.

[3] = Acute toxicity, tolerated dose in Balb/c mice; type: in vivo
Method: In this example, Ru^TEN3 was subjected to in vivo studies with Balb/c mice. Various treatment regimens were explored to define the optimally tolerated dose of Ru^TEN3 in vivo. […] The body weight changes were recorded.

MDA-MB-231 mammospheres [4] = test: Mammosphere formation assay, MDA-MB-231 primary; type: cell-based; details: for Number of MDA-MB-231 mammospheres / Size (μm) of MDA-MB-231 mammospheres: primary mammospheres grown 96 hr, incubated with compound 72 hrs, >50 μm analyzed; for decrease in number of MDA-MB-231 mammospheres / decrease in size of MDA-MB-231 mammospheres: versus control
Method: as §2, §3, §4

MCF-7 = test: cells; type: cell-based; details: read-out: IC50 (μM) MCF-7 72 h
Method: (§5) Cells were seeded in 96-well plates and maintained for 14-16 hours, then were treated with dimethylsulfoxide (DMSO) or test compound at various concentrations (i.e., 0.312, 1.25, 5, 20 μM) for 72 hrs. The cells were then washed with phosphate buffer saline (PBS) twice, added a medium containing 3-(4,5-dimethylthiazol-2-yl)-2,5-diphenyltetrazolium bromide (MTT) at a final concentration of 0.5 mg/mL, and incubated for 4 hr at 37° C. in a humidified incubator containing 5% CO2 in air. Cells having functional succinate dehydrogenase of mitochondria would convert MTT to formazan. Then, the medium was replaced with 100 μL of DMSO for 30 min at room temperature, and the 96-well plate was read by an ELISA reader at 550 nm to get the absorbance density values. The IC50 values of death cell lines were calculated accordingly.
(§6) The Ru^TEN complexes of Example 1 were evaluated for their anti-proliferative properties in two breast cancer cell lines, namely, MCF-7 and MDA-MB-231 cells via MTT assay. […] MCF-7 is a chemotherapy-responsive breast cancer cell line of luminal subtype with high expression of estrogen receptor (ER), whereas MDA-MB-231 is a triple negative breast cancer (TNBC) or basal-like breast cancer cell ine. TNBC is defined as highly invasive cancer that lacks expression of ER, progesterone receptor (PR) and Her-2; it has one of the worst outcomes among all subtypes of breast cancers. The aggressive nature of TNBC may be related to the presence of breast cancer stem cells within the tumor; therefore, MDA-MB-231 cells are often used as a model of mammary cancer stem cells.
(§7) The cytotoxicity of Ru^TEN complexes of Example 1 was compared to that of cisplatin or oxaliplatin, which were known to induce their anticancer effects by the mode of action different from ER stress. Three CSC-selective organic compounds, salinomycin, etoposide and abamectin, were also used for comparison. Briefly, MCF-7 and MDA-MB-231 cells were respectively treated with increasing concentrations of compounds of interest for 24 or 72 hrs and then the cell viability was measured.

MDA-MB-231 mammospheres [5] = test: Viability of MDA-MB-231 mammospheres, Alamar Blue assay (Table 1); type: cell-based; details: read-out: IC50 (μM), growth of MDA-MB-231 mammospheres
MDA-MB-231 = test: Anti-proliferative activity (MTT assay), MDA-MB-231; type: cell-based
Method: as §5, §6, §7

[6] = test system: MDA-MB-231 secondary mammospheres; test: Secondary mammosphere formation (self-renewal), MDA-MB-231; type: cell-based; details: for Number of MDA-MB-231 secondary mammospheres / Size (μm) of MDA-MB-231 secondary mammospheres: from drug-treated primary mammospheres, grown in drug-free conditions for 7 days; for propensity to form secondary mammospheres: single cells from drug-treated primary mammospheres, 7 days drug-free, FIG. 2
Method: To this purpose, drug-treated primary MDA-MB-231 mammospheres were dissociated into single cell suspensions and incubated for 7 days in ultralow attachment drug-free conditions.

MDA-MB-231 mammospheres [7] = test: Cytotoxicity in MDA-MB-231 mammospheres (Table 2); type: cell-based; details: read-out: IC50 (μM) MDA-MB-231 mammospheres 72 h
[8] = test system: human hepatocellular carcinoma LM3 xenografts; test: Hepatocellular carcinoma LM3 xenograft model; type: in vivo, athymic NCr nude mice; details: all doses tested, FIG. 8
Method: as §1

[9] = Ru biodistribution in tumor-bearing mice; type: in vivo; details: FIG. 6
Description: The Ru biodistribution in tumor-bearing mice treated with Ru^TEN3 was also investigated.

[10] = test system: ALDHbright subpopulation of MDA-MB-231 cells; test: ALDEFLUOR assay (ALDH activity); type: cell-based; details: versus control, FIG. 3
Method: The cells were stained with […] bodipy-aminoacetaldehyde (BAAA), and then cultured at 37° C. for 45 minutes. An ALDH1 inhibitor, diethyl aminobenzaldehyde (DEAB), was used as the negative control. The stained cells were assayed using BD FACS Aria III. In this case, the positive fluorescent ALDH1-expressed cells (ALDH+) were detected in a green fluorescent channel (520 to 540 nm).
While CD44+/CD24−/low phenotype has often been associated with breast CSC/progenitor cell features, yet there is no correlation between the presence of CD44+/CD24−/low cells and clinical outcome and formation of distant metastases. It is the presence of aldehyde dehydrogenase (ALDH) bright cells which separates highly tumorigenic CD44+/CD24−/low/ALDHbright population from non-tumorigenic cells. Unlike CD44+/CD24−/low, ALDH is a predictor of metastasis and is associated with a poor clinical outcome. The main role of ALDH enzymes is the detoxification of aldehydes generated in various metabolic processes into carboxylic acids. However, several ALDH isoforms are involved in retinoic acid signaling and this particular function was linked to the “stemness” of CSCs. The functional activity of ALDHs can be accurately determined by ascertaining the cellular conversion of […] (BAAA) into a fluorescent molecule BODIPY-aminoacetate (BAA). ATP-binding cassette (ABC)-transporter inhibitors in the assay buffer prevent the efflux of BAA from the cells, resulting in the accumulation of BAA in cytoplasm.

[11] = 24 h, MTT, read-out: IC50 (μM) MDA-MB-231 24 h
[12] = 72 h, MTT, read-out: IC50 (μM) MDA-MB-231 72 h

Molecule | body weight / toxicity in MDA-MB-231 tumor-bearing mice [1] | Number of MCF-7 mammospheres (MCF-7 mammospheres) | Size (μm) of MCF-7 mammospheres (MCF-7 mammospheres) [μm] | decrease in number of MCF-7 mammospheres (MCF-7 mammospheres; versus control) [%] | dispersion of cells into collagen after 28 hr / entire incubation period (MDA-MB-231 mammospheres [2]) | Number of MDA-MB-231 mammospheres (MDA-MB-231 mammospheres [4]) | Size (μm) of MDA-MB-231 mammospheres (MDA-MB-231 mammospheres [4]) [μm] | decrease in number of MDA-MB-231 mammospheres (MDA-MB-231 mammospheres [4]) [%] | decrease in size of MDA-MB-231 mammospheres (MDA-MB-231 mammospheres [4]) [%] | IC50 (MCF-7; 72 h, MTT) [µM] | IC50 (MDA-MB-231 mammospheres [5]) [µM] | IC50 (MDA-MB-231; [11]) [µM] | IC50 (MDA-MB-231; [12]) [µM] | Number of MDA-MB-231 secondary mammospheres [6] | Size (μm) of MDA-MB-231 secondary mammospheres [6] [μm] | propensity to form secondary mammospheres [6] | IC50 (MDA-MB-231 mammospheres [7]; 72 h) [µM] | body weight of LM3 tumor-bearing mice [8] | dispersion of cells into collagen after 4 hr (MDA-MB-231 mammospheres [2]) | also measured
[(η6-1,3,5-triisopropybenzene)RuCl(3-chloro-N-(2-quinolinylmethylene)-aniline)]Cl [Ru^TEN3] | low toxicity | 183 ± 32 | 122 ± 16 | 30 | did not migrate from the spheroids | 50 ± 21 | 76 ± 19 | 35 | 60 | 4.4 ± 0.4 | 2.7 | 4.5 ± 0.8 | 1.5 ± 0.3 | 81 ± 9 | 67 ± 4 | drastically reduced propensity to form secondary mammospheres | 1.7 ± 0.3 | neither Ru^TEN1 nor Ru^TEN3 had caused lost in body weight |  | body weight and condition ([3]; 5 μmol/kg intraperitoneally twice a week for 33 days): did not demonstrate any weight loss; body weight and condition ([3]; 10 μmol/kg intraperitoneally twice a week for 33 days): did not demonstrate any weight loss; body weight and condition ([3]; 20 μmol/kg intraperitoneally twice a week): experienced severe pain, stopped moving, thus were euthanized; Ru accumulation in tissues [9]: highest Ru accumulation was observed in spleen and liver, followed by kidney and colon; Ru content in the brain [9]: very low
CC(C)c1cc(C(C)C)cc(C(C)C)c1.COc1ccc([N+]2=Cc3ccc4ccccc4[n+]3[Ru-]2[Cl])cc1.[Cl-] [Ru^TEN1, [(η6-1,3,5-triisopropybenzene)RuCl(4-methoxy-N-(2-quinolinyl-methylene)-aniline)]Cl] |  | 238 ± 86 | 130 ± 15 |  | only slight dispersion | 103 ± 41 | 93 ± 29 | 20 | 18 | 0.68 ± 0.23 | 2.2 | 1.2 ± 0.1 | 0.28 ± 0.1 | 102 ± 28 | 69 ± 3 | drastically reduced propensity to form secondary mammospheres | 1.4 ± 0.1 | neither Ru^TEN1 nor Ru^TEN3 had caused lost in body weight | did not exhibit significant dispersion | 
CC[C@@H](C(=O)[C@@H](C)[C@@H](O)[C@H](C)[C@@H]1O[C@@H]([C@@H](CC)C(=O)O)CC[C@@H]1C)[C@H]1O[C@]2(C=C[C@@H](O)[C@]3(CC[C@@](C)([C@H]4CC[C@](O)(CC)[C@H](C)O4)O3)O2)[C@H](C)C[C@@H]1C [Saliomycin, salinomycin] | low toxicity | 176 ± 73 | 117 ± 21 | 33 | only slight dispersion | 87 ± 28 | 84 ± 25 | 30 | 30 |  |  |  |  | 224 ± 74 | 82 ± 8 | only slight changes in size and number of mammospheres |  |  | did not exhibit significant dispersion | decrease in size of MCF-7 mammospheres (MCF-7 mammospheres; versus control): 9%; reduction of ALDHbright sub-population [10]: 89%; IC50 (MCF-7; Homo sapiens, MCF7, 72 h): 0.51 ± 0.03 µM; IC50 (MDA-MB-231; Homo sapiens, MDA-MB-231, 24 h, read-out: IC50 (μM) MDA-MB-231 24 h): 31 ± 4 µM; IC50 (MDA-MB-231; Homo sapiens, MDA-MB-231, 72 h, read-out: IC50 (μM) MDA-MB-231 72 h): 0.56 ± 0.09 µM; IC50 (MDA-MB-231 mammospheres [7]; Homo sapiens, MDA-MB-231, 72 h): 8.3 ± 2.4 µM
